How the values were obtained:
HPK1 [1] = biological target: T1, HPK1 (Homo sapiens, UniProt Q92918); test: HPK1 kinase activity assay (ADP-Glo); conditions: HPK1 Kinase activity IC50 (nM), 1 nM HPK1, 10 μM ATP, 0.1 μg/μL MBP
T1 sequence (Q92918 1-346 limits assumed): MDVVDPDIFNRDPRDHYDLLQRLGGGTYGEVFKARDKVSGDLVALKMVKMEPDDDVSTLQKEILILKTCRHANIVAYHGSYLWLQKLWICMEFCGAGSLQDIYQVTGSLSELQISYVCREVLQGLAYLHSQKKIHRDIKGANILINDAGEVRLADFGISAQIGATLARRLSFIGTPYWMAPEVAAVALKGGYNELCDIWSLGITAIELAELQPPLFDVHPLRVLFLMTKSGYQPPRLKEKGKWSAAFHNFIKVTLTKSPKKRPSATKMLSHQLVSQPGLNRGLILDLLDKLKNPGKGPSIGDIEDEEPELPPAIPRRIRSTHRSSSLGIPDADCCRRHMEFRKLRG

HPK1 [2] = biological target: HPK1 (Homo sapiens, UniProt Q92918); test: SLP76 phosphorylation assay (intracellular HPK1 inhibitory activity, p-SLP76 Ser376 sandwich ELISA); conditions: p-SLP76 IC50(nM), Jurkat, Clone E6-1 cells; 1 h compound pre-incubation, anti-CD3 beads stimulation 20 min; SLP76 phosphorylation at S376
Target sequence in this assay (Q92918 whole entry): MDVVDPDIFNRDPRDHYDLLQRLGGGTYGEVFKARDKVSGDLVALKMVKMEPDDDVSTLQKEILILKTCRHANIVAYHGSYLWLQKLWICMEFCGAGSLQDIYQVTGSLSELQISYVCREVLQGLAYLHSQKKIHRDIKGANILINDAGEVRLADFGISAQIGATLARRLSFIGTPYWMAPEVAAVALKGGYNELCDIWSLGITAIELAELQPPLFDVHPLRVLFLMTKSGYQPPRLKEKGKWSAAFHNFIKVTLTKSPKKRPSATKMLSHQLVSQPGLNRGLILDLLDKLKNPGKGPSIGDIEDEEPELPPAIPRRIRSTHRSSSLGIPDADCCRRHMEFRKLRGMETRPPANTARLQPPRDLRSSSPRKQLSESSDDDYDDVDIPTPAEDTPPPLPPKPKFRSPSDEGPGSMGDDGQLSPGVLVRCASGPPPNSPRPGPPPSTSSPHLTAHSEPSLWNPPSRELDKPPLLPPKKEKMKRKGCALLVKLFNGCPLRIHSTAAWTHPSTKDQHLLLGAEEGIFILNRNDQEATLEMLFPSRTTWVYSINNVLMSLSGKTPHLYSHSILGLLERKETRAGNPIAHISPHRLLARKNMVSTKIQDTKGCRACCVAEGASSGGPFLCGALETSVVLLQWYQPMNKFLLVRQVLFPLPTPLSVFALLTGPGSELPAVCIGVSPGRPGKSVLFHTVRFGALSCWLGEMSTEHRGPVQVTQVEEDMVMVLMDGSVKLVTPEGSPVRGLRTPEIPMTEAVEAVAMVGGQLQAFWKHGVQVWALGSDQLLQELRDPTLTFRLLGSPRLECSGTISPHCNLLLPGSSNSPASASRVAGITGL
Protocol: Intracellular HPK1 inhibitory activity was tested by the detection of SLP76 phosphorylation at S376.
Preparation of 1000× drug stock plate: a 1000× compound stock plate was prepared. […] The compound stock plate was sealed with a sealing film and stored in a −20° C. refrigerator for later use.
Preparation of Beads wash buffer: 0.1 mL FBS and 0.4 mL 0.5 M EDTA (with a final concentration of 2 mM) were added to 100 mL PBS and stored in a 4° C. refrigerator for later use.
100× Protease Inhibitor Cocktail in 1/20 total volume was added and stored on wet ice for later use. The buffer was ready to use.
Cell inoculation and dosing: the 1000× drug stock plate was taken and melted at room temperature in the dark. […] Jurkat cells in the logarithmic growth phase were selected and collected. […] The cells were inoculated into a 96-well plate (the volume was 90 μL per well), and a blank control well (without cells inoculation, and in which 110 μL of medium was added) was set. 10 μL of a drug-containing culture medium (10×) was transferred from the 10× drug intermediate plate into the 96-well cell plate (with a final concentration of 0.1% DMSO), and set a DMSO control group (in which 0.1% DMSO was added to the treated cells), a stimulated control group (in which 10 μL of culture medium was added to treat cells) and an unstimulated group (in which 10 μL of culture medium was added to treat cells). The wells were duplicated, gently patted, mixed, and then placed into a 5% CO2 incubator at 37° C. for 1 h.
Anti-CD3 beads stimulation: Dynabeads anti-human CD3 was taken, shaken, and mixed for 60 s. The required volume of beads was pipetted, and an equal volume or at least 1 mL of washing solution was added to wash once. Fresh complete medium was then added to resuspend and adjust the density of the beads to 4×10^7/mL, and the beads were placed on ice for later use. At the end of drug pre-incubation, the cell culture plate was taken out. 10 μL Dynabeads anti-human CD3 was added to each well to treat the cells, and 10 μL the culture medium was added to the unstimulated group. The cell culture plate was shaken to mix well at 2500 rpm for 10 s, and then placed into a 5% CO2 incubator at 37° C. and continued to culture for 20 min.
Detection of p-SLP76 protein level. PathScan Phospho-SLP-76 (Ser376) Sandwich ELISA Kit was applied to detect p-SLP76 protein level. At the end of the Anti-CD3 beads stimulation, the cell culture plate was removed from the incubator. […] After lysis, the cell culture plate was centrifuged at 4° C., 400×g for 5 min. 25 μL of sample and 75 μL of sample diluent were added to each well, and the plate was placed in a 5% CO2 incubator at 37° C. for 2 h. The subsequent detection steps were carried out following the kit instructions, and the absorbance (OD value) of each well was read at 450 nm by a microplate reader.

What does the source list for `Cc1c[nH]c2ncc(-c3cc4c(c([C@@H]5CCCN5)c3)CN(C(=O)c3ccccn3)CC4)cc12` [Compound Z211, (S)-(6-(3-methyl-1H-pyrrolo[2,3-b]pyridin-5-yl)-8-(pyrrolidin-2-yl)-3,4-dihydroisoquinolin-2(1H)-yl) (pyridin-2-yl)methanone]?
IC50 (HPK1 [1]): 1.7 nM; IC50 (HPK1 [2]): 463 nM

Which results are given for `Cc1ccc(-c2c[nH]c3ncc(-c4cc5c(c([C@@H]6CCCN6)c4)COCC5)cc23)cn1` [Compound Z212, (S)-3-(6-methylpyridin-3-yl)-5-(8-(pyrrolidin-2-yl)isochroman-6-yl)-1H-pyrrolo[2,3-b]pyridine]?
IC50 (HPK1 [1]): 3.76 nM; IC50 (HPK1 [2]): 909 nM

Which results are given for `Cc1cc(C(=O)N2CCc3cc(-c4cnc5[nH]cc(C)c5c4)cc([C@@H]4CCCN4)c3C2)ccn1` [Compound Z213, (S)-(6-(3-methyl-1H-pyrrolo[2,3-b]pyridin-5-yl)-8-(pyrrolidin-2-yl)-3,4-dihydroisoquinolin-2(1H)-yl) (2-methylpyridin-4-yl)methanone]?
IC50 (HPK1 [1]): 0.64 nM; IC50 (HPK1 [2]): 318 nM

`Cc1cc(C(=O)N2CCc3cc(-c4cnc5[nH]cc(C)c5c4)cc([C@@H]4CCCN4)c3C2)cc(C)n1` [Compound Z214, (S)-(6-(3-methyl-1H-pyrrolo[2,3-b]pyridin-5-yl)-8-(pyrrolidin-2-yl)-3,4-dihydroisoquinolin-2(1H)-yl) (2,6-dimethylpyridin-4-yl)methanone] was tested. Which IC50 (HPK1 [1]) did it give?
Its IC50 is 1.04 nM.

And the IC50 (HPK1 [2])?
Its IC50 is 181 nM.

What does the source list for `COc1cc(C(=O)N2CCc3cc(-c4cnc5[nH]cc(C)c5c4)cc([C@@H]4CCCN4)c3C2)ccn1` [Compound Z215, (S)-(6-(3-methyl-1H-pyrrolo[2,3-b]pyridin-5-yl)-8-(pyrrolidin-2-yl)-3,4-dihydroisoquinolin-2(1H)-yl) (2-methoxypyridin-4-yl)methanone]?
IC50 (HPK1 [1]): 0.51 nM; IC50 (HPK1 [2]): 444 nM

`Cc1c[nH]c2ncc(-c3cc4c(c([C@@H]5CCCN5)c3)CN(C(=O)C(C)(C)O)CC4)cc12` [Compound Z216, (S)-2-hydroxy-2-methyl-1-(6-(3-methyl-11H-pyrrolo[2,3-b]pyridin-5-yl)-8-(pyrrolidin-2-yl)-3,4-dihydroisoquinolin-2(1H)-yl)propan-1-one] was tested. Which IC50 (HPK1 [1]) did it give?
The IC50 was 0.41 nM.

What about the IC50 (HPK1 [2]) of the same compound?
Its IC50 is 108 nM.

For `CCNC(=O)N1CCc2cc(-c3cnc4[nH]cc(C)c4c3)cc([C@@H]3CCCN3)c2C1` [Compound Z217, (S)—N-ethyl-6-(3-methyl-1H-pyrrolo[2,3-b]pyridin-5-yl)-8-(pyrrolidin-2-yl)-3,4-dihydroisoquinoline-2(1H)-carboxamide], which IC50 (HPK1 [1]) is on record?
The IC50 was 0.44 nM.

And the IC50 (HPK1 [2])?
Its IC50 is 133 nM.

What does the source list for `Cc1c[nH]c2ncc(-c3cc4c(c([C@@H]5CCCN5)c3)CN(C(=O)CC3CCOCC3)CC4)cc12` [Compound Z218, (S)-1-(6-(3-methyl-1H-pyrrolo[2,3-b]pyridin-5-yl)-8-(pyrrolidin-2-yl)-3,4-dihydroisoquinolin-2(1H)-yl)-2-(tetrahydro-2H-pyran-4-yl)ethanone]?
IC50 (HPK1 [1]): 0.81 nM; IC50 (HPK1 [2]): 367 nM

Which IC50 (HPK1 [1]) does the source give for `Cc1c[nH]c2ncc(-c3cc4c(c([C@@H]5CCCN5)c3)CN(C(=O)[C@@H]3CCOC3)CC4)cc12` [Compound Z219-1, (S)-(6-(3-methyl-1H-pyrrolo[2,3-b]pyridin-5-yl)-8-(pyrrolidin-2-yl)-3,4-dihydroisoquinolin-2(1H)-yl) ((R)-tetrahydrofuran-3-yl)methanone] here?
Its IC50 is 0.42 nM.

What about the IC50 (HPK1 [2]) of the same compound?
Its IC50 is 174 nM.

Which IC50 (HPK1 [1]) does the source give for `Cc1c[nH]c2ncc(-c3cc4c(c([C@@H]5CCCN5)c3)CN(C(=O)[C@H]3CCOC3)CC4)cc12` [Compound Z219-2, (S)-(6-(3-methyl-1H-pyrrolo[2,3-b]pyridin-5-yl)-8-(pyrrolidin-2-yl)-3,4-dihydroisoquinolin-2(1H)-yl) ((S)-tetrahydrofuran-3-yl)methanone] here?
The IC50 was 0.35 nM.

What about the IC50 (HPK1 [2]) of the same compound?
The IC50 was 122 nM.

How did the IC50 (HPK1 [1]) turn out when `Cc1c[nH]c2ncc(-c3cc4c(c([C@@H]5CCCN5)c3)CN(C(=O)C3CCOC3)CC4)cc12` (some centres unmarked) [Compound Z219] was run?
Its IC50 is 0.66 nM.

And the IC50 (HPK1 [2])?
Its IC50 is 257 nM.

How did the IC50 (HPK1 [1]) turn out when `Cc1c[nH]c2ncc(-c3cc4c(c([C@@H]5CCCN5)c3)CN(C(=O)c3ccncn3)CC4)cc12` [Compound Z221, (S)-(6-(3-methyl-1H-pyrrolo[2,3-b]pyridin-5-yl)-8-(pyrrolidin-2-yl)-3,4-dihydroisoquinolin-2(1H)-yl) (pyrimidin-4-yl)methanone] was run?
Its IC50 is 1.27 nM.

What about the IC50 (HPK1 [2]) of the same compound?
The IC50 was 215 nM.

How did the IC50 (HPK1 [1]) turn out when `Cc1c[nH]c2ncc(-c3cc4c(c([C@@H]5CCCN5)c3)CN(C(=O)c3ccn(C)n3)CC4)cc12` [Compound Z223, (S)-(1-methyl-1H-pyrazol-3-yl)(6-(3-methyl-1H-pyrrolo[2,3-b]pyridin-5-yl)-8-(pyrrolidin-2-yl)-3,4-dihydroisoquinolin-2(1H)-yl)methanone] was run?
The IC50 was 1.6 nM.

And the IC50 (HPK1 [2])?
The IC50 was 301 nM.

How did the IC50 (HPK1 [1]) turn out when `Cc1c[nH]c2ncc(-c3cc4c(c([C@@H]5CCCN5)c3)CN(C(=O)c3cnn(C)c3)CC4)cc12` [Compound Z224, (S)-(1-methyl-1H-pyrazol-4-yl)(6-(3-methyl-1H-pyrrolo[2,3-b]pyridin-5-yl)-8-(pyrrolidin-2-yl)-3,4-dihydroisoquinolin-2(1H)-yl)methanone] was run?
Its IC50 is 1.11 nM.

And the IC50 (HPK1 [2])?
The IC50 was 333 nM.

What does the source list for `Cc1c[nH]c2ncc(-c3cc4c(c([C@@H]5CCCN5)c3)COC3(CC3)C4)cc12` [Compound Z229, (S)-3-methyl-5-(8′-(pyrrolidin-2-yl)spiro[cyclopropane-1,3′-isochroman]-6′-yl)-1H-pyrrolo[2,3-b]pyridine]?
IC50 (HPK1 [1]): 0.46 nM; IC50 (HPK1 [2]): 276 nM

What does the source list for `C=C1COCc2c(cc(-c3cnc4[nH]cc(C)c4c3)cc2[C@@H]2CCCN2)C1` [Compound Z230, (S)-3-methyl-5-(4-methylene-9-(pyrrolidin-2-yl)-1,3,4,5-tetrahydrobenzo[c]oxepin-7-yl)-1H-pyrrolo[2,3-b]pyridine]?
IC50 (HPK1 [1]): 1.04 nM; IC50 (HPK1 [2]): 438 nM

How did the IC50 (HPK1 [1]) turn out when `Cc1c[nH]c2ncc(-c3cc4c(c(C5CC(=O)N5)c3)COCC4)cc12` (centres unmarked) [Compound Z231, 4-(6-(3-methyl-1H-pyrrolo[2,3-b]pyridin-5-yl)isochroman-8-yl)azetidin-2-one] was run?
Its IC50 is 35.3 nM.

What about the IC50 (HPK1 [2]) of the same compound?
The IC50 was over 10000 nM.

Which IC50 (HPK1 [1]) does the source give for `Cc1c[nH]c2ncc(-c3cc4c(c(C5CCN5)c3)COCC4)cc12` (centres unmarked) [Compound Z232, 5-(8-(azetidin-2-yl)isochroman-6-yl)-3-methyl-1H-pyrrolo[2,3-b]pyridine] here?
Its IC50 is 20.5 nM.

And the IC50 (HPK1 [2])?
Its IC50 is 1660 nM.

How did the IC50 (HPK1 [1]) turn out when `CN(C)Cc1cc(-c2cnc3[nH]cc(Cl)c3c2)cc2c1COCC2` [Compound Z233, 1-(6-(3-chloro-1H-pyrrolo[2,3-b]pyridin-5-yl)isochroman-8-yl)-N,N-dimethylmethanamine] was run?
Its IC50 is 4.01 nM.

And the IC50 (HPK1 [2])?
The IC50 was 520 nM.

How did the IC50 (HPK1 [1]) turn out when `CC(=O)N1Cc2cc(-c3cnc4[nH]cc(C)c4c3)cc([C@@H]3CCCN3)c2C1` [Compound Z235, (S)-1-(6-(3-methyl-1H-pyrrolo[2,3-b]pyridin-5-yl)-4-(pyrrolidin-2-yl)isoindolin-2-yl)ethan-1-one] was run?
Its IC50 is 1.32 nM.

And the IC50 (HPK1 [2])?
The IC50 was 735 nM.

`CCN1Cc2c(cc(-c3cnc4[nH]cc(C)c4c3)cc2[C@@H]2CCCN2)C1=O` [Compound Z236, (S)-2-ethyl-6-(3-methyl-1H-pyrrolo[2,3-b]pyridin-5-yl)-4-(pyrrolidin-2-yl)isoindolin-1-one] was tested. Which IC50 (HPK1 [1]) did it give?
The IC50 was 29.6 nM.

What about the IC50 (HPK1 [2]) of the same compound?
The IC50 was 3810 nM.

`Cc1ccncc1C#Cc1c[nH]c2ncc(-c3cc4c(c([C@@H]5CCCN5)c3)COCC4)cc12` [Compound Z237, (S)-3-((4-methylpyridin-3-yl)ethynyl)-5-(8-(pyrrolidin-2-yl)isochroman-6-yl)-1H-pyrrolo[2,3-b]pyridine] was tested. Which IC50 (HPK1 [1]) did it give?
Its IC50 is 0.71 nM.

What about the IC50 (HPK1 [2]) of the same compound?
The IC50 was 100 nM.

Reference: patent publication US20240182465A1 (GENFLEET THERAPEUTICS (SHANGHAI) INC., priority 2021, published 2024)
